Test results as given in patent publication US6977262B2, “Dihydropyrazolopyridine compounds and pharmaceutical use thereof” (Mitsubishi Pharma Corporation, priority 2001, dated 2005).

Row | SMILES | melting point
1 | CNCCC1=C(C#N)C(c2cccc3nonc23)c2c[nH]nc2N1 (centres unmarked) [Example 1016, 4-(2,1,3-Benzoxadiazol-4-yl)-5-cyano-4,7-dihydro-6-(2-(N-methylamino)ethyl)-2H-pyrazolo[3,4-b]pyridine] | 174 °C
2 | CC(C)(C)OC(=O)NCCC1=C(C#N)C(c2cccc3nonc23)c2c[nH]nc2N1 (centres unmarked) [Example 1017, 4-(2,1,3-Benzoxadiazol-4-yl)-6-(2-(N-t-butoxycarbonyl-amino)ethyl)-5-cyano-4,7-dihydro-2H-pyrazolo[3,4-b]pyridine] | 231 °C
3 | CN(C)CCC1=C(C#N)C(c2cccc3nonc23)c2c[nH]nc2N1 (centres unmarked) [Example 1019, 4-(2,1,3-Benzoxadiazol-4-yl)-5-cyano-4,7-dihydro-6-(2-(N,N-dimethylamino)ethyl)-2H-pyrazolo[3,4-b]pyridine] | 215 °C
4 | CN(CC1=C(C#N)C(c2cccc3nonc23)c2c[nH]nc2N1)C(=O)OC(C)(C)C (centres unmarked) [Example 1020, 4-(2,1,3-Benzoxadiazol-4-yl)-6-((N-t-butoxycarbonyl-N-methylamino)methyl)-5-cyano-4,7-dihydro-2H-pyrazolo[3,4-b]-pyridine] | 207 °C
5 | N#CC1=C(C2CCN(C(=O)c3ccccc3)CC2)Nc2n[nH]cc2C1c1cccc2nonc12 (centres unmarked) [Example 1026, 4-(2,1,3-Benzoxadiazol-4-yl)-6-(1-benzoylpiperidin-4-yl)-5-cyano-4,7-dihydro-2H-pyrazolo[3,4-b]pyridine] | 228 °C
6 | CC(=O)N1CC=C(C2=C(C#N)C(c3cccc4nonc34)c3c[nH]nc3N2)CC1 (centres unmarked) [Example 1027, 6-(1-Acetyl-1,2,3,6-tetrahydropyridin-4-yl)-4-(2,1,3-benzoxadiazol-4-yl)-5-cyano-4,7-dihydro-2H-pyrazolo[3,4-b]-pyridine] | 237 °C
7 | CS(=O)(=O)N1CCC(C2=C(C#N)C(c3cccc4nonc34)c3c[nH]nc3N2)CC1 (centres unmarked) [Example 1029, 4-(2,1,3-Benzoxadiazol-4-yl)-5-cyano-4,7-dihydro-6-(1-methanesulfonylpiperidin-4-yl)-2H-pyrazolo[3,4-b]pyridine] | 243 °C
8 | N#CC1=C(C2CCN(C(=N)N)CC2)Nc2n[nH]cc2C1c1cccc2nonc12 (centres unmarked) [Example 1031, 4-(2,1,3-Benzoxadiazol-4-yl)-5-cyano-4,7-dihydro-6-(1-guanylpiperidin-4-yl)-2H-pyrazolo[3,4-b]pyridine] | > 270 °C
9 | CC(=O)N1CCCC(C2=C(C#N)C(c3cccc4nonc34)c3c[nH]nc3N2)C1 (centres unmarked) [Example 1032, 6-(1-Acetylpiperidin-3-yl)-4-(2,1,3-benzoxadiazol-4-yl)-5-cyano-4,7-dihydro-2H-pyrazolo[3,4-b]pyridine] | 219 °C
10 | CCN1CCC(C2=C(C#N)C(c3cccc4nonc34)c3c[nH]nc3N2)CC1 (centres unmarked) [Example 1033, 4-(2,1,3-Benzoxadiazol-4-yl)-5-cyano-4,7-dihydro-6-(1-ethylpiperidin-4-yl)-2H-pyrazolo[3,4-b]pyridine] | 231 °C
11 | CCCN1CCC(C2=C(C#N)C(c3cccc4nonc34)c3c[nH]nc3N2)CC1 (centres unmarked) [Example 1034, 4-(2,1,3-Benzoxadiazol-4-yl)-5-cyano-4,7-dihydro-6-(1-propylpiperidin-4-yl)-2H-pyrazolo[3,4-b]pyridine] | 246 °C
12 | CC(C)N1CCC(C2=C(C#N)C(c3cccc4nonc34)c3c[nH]nc3N2)CC1 (centres unmarked) [Example 1035, 4-(2,1,3-Benzoxadiazol-4-yl)-5-cyano-4,7-dihydro-6-(1-iso-propylpiperidin-4-yl)-2H-pyrazolo[3,4-b]pyridine] | 260 °C
13 | CC(C)(C)OC(=O)N1CCC(C2=C(C#N)C(c3cccc(C#N)c3Br)c3c[nH]nc3N2)CC1 (centres unmarked) [Example 1036, 4-(2-Bromo-3-cyanophenyl)-6-(1-t-butoxycarbonylpiperidin-4-yl)-5-cyano-4,7-dihydro-2H-pyrazolo[3,4-b]pyridine] | > 270 °C
14 | N#CC1=C(C2CCNCC2)Nc2n[nH]cc2C1c1cccc(C#N)c1Br (centres unmarked) [Example 1037, 4-(2-Bromo-3-cyanophenyl)-5-cyano-4,7-dihydro-6-(piperidin-4-yl)-2H-pyrazolo[3,4-b]pyridine] | > 270 °C
15 | CN1CCC(C2=C(C#N)C(c3cccc(C#N)c3Br)c3c[nH]nc3N2)CC1 (centres unmarked) [Example 1038, 4-(2-Bromo-3-cyanophenyl)-5-cyano-4,7-dihydro-6-(1-methylpiperidin-4-yl)-2H-pyrazolo[3,4-b]pyridine] | > 270 °C
16 | CC(C)(C)OC(=O)N1CCCC(C2=C(C#N)C(c3cccc(C#N)c3Br)c3c[nH]nc3N2)C1 (centres unmarked) [Example 1039, 4-(2-Bromo-3-cyanophenyl)-6-(1-t-butoxycarbonylpiperidin-3-yl)-5-cyano-4,7-dihydro-2H-pyrazolo[3,4-b]pyridine] | 238 °C
17 | CC(C)(C)OC(=O)N1CCOC(C2=C(C#N)C(c3cccc(C#N)c3Br)c3c[nH]nc3N2)C1 (centres unmarked) [Example 1044, 4-(2-Bromo-3-cyanophenyl)-6-(4-t-butoxycarbonylmorpholin-2-yl)-5-cyano-4,7-dihydro-2H-pyrazolo[3,4-b]pyridine] | 219 °C
18 | N#CC1=C(C2=CCNCC2)Nc2n[nH]cc2C1c1cccc(C#N)c1Br (centres unmarked) [Example 1047, 4-(2-Bromo-3-cyanophenyl)-5-cyano-4,7-dihydro-6-(1,2,3,6-tetrahydropyridin-4-yl)-2H-pyrazolo[3,4-b]pyridine] | 226 °C

Row | SMILES | melting point
19 | CN1CC=C(C2=C(C#N)C(c3cccc(C#N)c3Br)c3c[nH]nc3N2)CC1 (centres unmarked) [Example 1048, 4-(2-Bromo-3-cyanophenyl)-5-cyano-4,7-dihydro-6-(1-methyl-1,2,3,6-tetrahydropyridin-4-yl)-2H-pyrazolo[3,4-b]pyridine] | 233 °C
20 | CC(=O)N1CCC(C2=C(C#N)C(c3cccc(C#N)c3Br)c3c[nH]nc3N2)CC1 (centres unmarked) [Example 1051, 6-(1-Acetylpiperidin-4-yl)-4-(2-bromo-3-cyanophenyl)-5-cyano-4,7-dihydro-2H-pyrazolo[3,4-b]pyridine] | > 280 °C
21 | N#CC1=C(C2CCN(C(=O)c3ccccc3)CC2)Nc2n[nH]cc2C1c1cccc(C#N)c1Br (centres unmarked) [Example 1052, 6-(1-Benzoylpiperidin-4-yl)-4-(2-bromo-3-cyanophenyl)-5-cyano-4,7-dihydro-2H-pyrazolo[3,4-b]pyridine] | > 280 °C
22 | CS(=O)(=O)N1CCC(C2=C(C#N)C(c3cccc(C#N)c3Br)c3c[nH]nc3N2)CC1 (centres unmarked) [Example 1053, 4-(2-Bromo-3-cyanophenyl)-5-cyano-4,7-dihydro-6-(1-methanesulfonylpiperidin-4-yl)-2H-pyrazolo[3,4-b]pyridine] | > 280 °C
23 | CC(C)(C)OC(=O)N1CCC(C2=C(C#N)C(c3ccccc3Cl)c3c[nH]nc3N2)CC1 (centres unmarked) [Example 1054, 6-(1-t-Butoxycarbonylpiperidin-4-yl)-4-(2-chlorophenyl)-5-cyano-4,7-dihydro-2H-pyrazolo[3,4-b]pyridine] | > 280 °C
24 | N#CC1=C(C2CCNCC2)Nc2n[nH]cc2C1c1ccccc1Cl (centres unmarked) [Example 1055, 4-(2-Chlorophenyl)-5-cyano-4,7-dihydro-6-(piperidin-4-yl)-2H-pyrazolo[3,4-b]pyridine] | 221 °C
25 | CC(=O)CC1=C(C#N)C(c2cccc3nonc23)c2c[nH]nc2N1 (centres unmarked) [Example 1061, 6-Acetylmethyl-4-(2,1,3-benzoxadiazol-4-yl)-5-cyano-4,7-dihydro-2H-pyrazolo[3,4-b]pyridine] | 200 °C
26 | N#CC1=C(C2CCCCC2=O)Nc2n[nH]cc2C1c1cccc(C#N)c1Br (centres unmarked) [Example 1062, 4-(2-Bromo-3-cyanophenyl)-5-cyano-4,7-dihydro-6-(2-oxocyclohexan-1-yl)-2H-pyrazolo[3,4-b]pyridine] | 273 °C
27 | N#CC1=C(C2CCCN2)Nc2n[nH]cc2C1c1cccc(C#N)c1Br (centres unmarked) [Example 1068, 4-(2-Bromo-3-cyanophenyl)-5-cyano-6-(pyrrolidin-2-yl)-4,7-dihydro-2H-pyrazolo[3,4-b]pyridine] | > 240 °C
28 | N#CC1=C(C2CCCN2)Nc2n[nH]cc2C1c1cccc2nonc12 (centres unmarked) [Example 1070, 4-(2,1,3-Benzoxadiazol-4-yl)-5-cyano-4,7-dihydro-6-(pyrrolidin-2-yl)-2H-pyrazolo[3,4-b]pyridine] | > 240 °C
29 | N#CC1=C(CN2C(=O)c3ccccc3C2=O)Nc2n[nH]cc2C1c1ccccc1Cl (centres unmarked) [Example 1079, 4-(2-Chlorophenyl)-5-cyano-4,7-dihydro-6-phthalimidomethyl-2H-pyrazolo[3,4-b]pyridine] | > 250 °C
30 | CC(=O)C1=C(C#N)C(c2ccccc2Cl)c2c[nH]nc2N1 (centres unmarked) [Example 1080, 6-Acetyl-4-(2-chlorophenyl)-5-cyano-4,7-dihydro-2H-pyrazolo[3,4-b]pyridine] | 225 to 228 °C (dec.)
31 | CC(=O)C1=C(C#N)C(c2cccc(C#N)c2Br)c2c[nH]nc2N1 (centres unmarked) [Example 1081, 6-Acetyl-4-(2-bromo-3-cyanophenyl)-5-cyano-4,7-dihydro-2H-pyrazolo[3,4-b]pyridine] | > 230 °C
32 | CC(=O)C1=C(C#N)C(c2cccc3nonc23)c2c[nH]nc2N1 (centres unmarked) [Example 1082, 6-Acetyl-4-(2,1,3-benzoxadiazol-4-yl)-5-cyano-4,7-dihydro-2H-pyrazolo[3,4-b]pyridine] | 230 °C (dec.)
33 | N#CC1=C(C2CC(=O)N(Cc3ccccc3)C2)Nc2n[nH]cc2C1c1ccccc1Cl (centres unmarked) [Example 1083, 6-(1-Benzyl-2-oxopyrrolidin-4-yl)-4-(2-chlorophenyl)-5-cyano-4,7-dihydro-2H-pyrazolo[3,4-b]pyridine] | > 230 °C
34 | CCCC1=C(c2ccccn2)C(c2cccc(C#N)c2Br)c2c[nH]nc2N1 (centres unmarked) [Example 1084, 4-(2-Bromo-3-cyanophenyl)-5-(pyridin-2-yl)-4,7-dihydro-6-propyl-2H-pyrazolo[3,4-b]pyridine] | 205 to 208 °C (dec.)
35 | N#CC1=C(C2CCNC2)Nc2n[nH]cc2C1c1ccccc1Cl (centres unmarked) [Example 1086, 4-(2-Chlorophenyl)-5-cyano-4,7-dihydro-6-(pyrrolidin-3-yl)-2H-pyrazolo[3,4-b]pyridine] | 210 to 215 °C (dec.)
